The target in test [1] is T1, human Kv1.3 voltage-gated K+ channel (Homo sapiens, UniProt P22001).
T1 construct: host or cells: CHO-DUKX
The test is described as follows: cell-based. To be noted: inhibition of thallium flux, CHO-DUKX cells with human Kv1.3; read-out: IC50.

A further test has as its target Rat whole blood (Rattus norvegicus, UniProt P15384).
Where [2] appears, read: inhibition of IL-17A release, thapsigargin, 24 Hr, at least 2 replicates.

Like-named read-outs stand apart in the source and are kept apart here. Bridge positions count the residues as written; N and C are the ends. Square brackets hold non-standard residues; d marks the D form. Peptide text beside a SMILES is read from it. Phe(4-Me) = Cc1ccc(C[C@H](N)C(=O)O)cc1; Nle = CCCC[C@H](N)C(=O)O A value given as a limit tells only on which side of the number the result lay.

Rat whole blood, sequence (P15384 whole entry): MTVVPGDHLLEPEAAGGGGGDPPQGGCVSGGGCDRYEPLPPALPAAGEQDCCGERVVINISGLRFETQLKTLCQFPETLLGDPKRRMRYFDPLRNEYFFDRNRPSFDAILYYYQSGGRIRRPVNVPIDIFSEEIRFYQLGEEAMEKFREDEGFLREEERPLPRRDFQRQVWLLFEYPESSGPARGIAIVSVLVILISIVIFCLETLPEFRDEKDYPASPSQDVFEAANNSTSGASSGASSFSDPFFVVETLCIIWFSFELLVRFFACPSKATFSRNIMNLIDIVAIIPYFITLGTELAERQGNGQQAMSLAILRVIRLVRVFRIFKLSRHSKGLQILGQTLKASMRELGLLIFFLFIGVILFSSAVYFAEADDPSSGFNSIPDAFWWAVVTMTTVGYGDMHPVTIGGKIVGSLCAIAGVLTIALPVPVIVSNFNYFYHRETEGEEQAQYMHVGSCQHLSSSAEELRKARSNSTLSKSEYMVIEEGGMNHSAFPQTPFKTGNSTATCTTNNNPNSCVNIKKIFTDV
T1 sequence (P22001 whole entry): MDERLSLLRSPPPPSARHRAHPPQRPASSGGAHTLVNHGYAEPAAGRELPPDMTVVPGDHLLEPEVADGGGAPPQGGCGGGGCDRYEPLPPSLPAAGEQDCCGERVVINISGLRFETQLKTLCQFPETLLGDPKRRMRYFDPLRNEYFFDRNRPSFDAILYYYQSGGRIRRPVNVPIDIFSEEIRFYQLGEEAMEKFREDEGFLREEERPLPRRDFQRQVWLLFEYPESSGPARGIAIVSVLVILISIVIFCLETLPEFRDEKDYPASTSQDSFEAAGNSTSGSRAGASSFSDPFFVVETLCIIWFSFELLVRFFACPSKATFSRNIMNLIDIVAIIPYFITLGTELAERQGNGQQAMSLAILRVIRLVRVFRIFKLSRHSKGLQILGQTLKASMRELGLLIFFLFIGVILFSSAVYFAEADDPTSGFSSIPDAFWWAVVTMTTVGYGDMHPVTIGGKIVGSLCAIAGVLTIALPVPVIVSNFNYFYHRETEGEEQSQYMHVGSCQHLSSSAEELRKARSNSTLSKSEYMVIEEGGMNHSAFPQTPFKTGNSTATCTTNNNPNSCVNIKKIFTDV

Turning to `CCCC[C@H](NC(=O)[C@H](CC(=O)O)NC(=O)[C@H](CCCC)NC(=O)[C@@H](N)CO)C(=O)N[C@@H](CCCNC(=N)N)C(=O)N[C@H]1CSSC[C@@H]2NC(=O)[C@H](CCCCN)NC(=O)CNC(=O)[C@H](Cc3ccccc3)NC(=O)[C@H]([C@@H](C)CC)NC(=O)[C@H](CO)NC(=O)CNC(=O)[C@H]([C@@H](C)CC)NC(=O)[C@H](C)NC(=O)[C@H](CCCCN)NC(=O)[C@H](CC(C)C)NC(=O)[C@@H]3CSSC[C@@H](C(=O)N[C@@H](Cc4ccc(C)cc4)C(=O)N4CCC[C@H]4C(=O)N[C@@H](CCCNC(=N)N)C(N)=O)NC(=O)[C@H](CCCCN)NC(=O)[C@H](CSSC[C@H](NC(=O)[C@H](CCC(=O)O)NC(=O)[C@H](C(C)C)NC(=O)[C@H](CO)NC(=O)[C@H](C)NC(=O)[C@H](CO)NC1=O)C(=O)N[C@@H](CCCCN)C(=O)N[C@@H](CCC(N)=O)C(=O)N[C@@H](CCCCN)C(=O)N3)NC(=O)[C@H](CCCCN)NC(=O)[C@H](CCCCN)NC(=O)[C@H](CC(N)=O)NC(=O)[C@H](CCSC)NC2=O` [Compound 93] (H-S[Nle]D[Nle]RCSASVECKQKCLKAIGSIFGKCMNKKCKC[Phe(4-Me)]PR-NH2; disulfide 6-27, 12-32, 16-34), the IC50 is 0.13 nM in test [1] and 0.54 nM on Rat whole blood (setting [2]).

For the compound `CCCC[C@H](NC(=O)[C@@H]1CCCN1)C(=O)N[C@@H](CCC(=O)O)C(=O)N[C@@H](CCCC)C(=O)N[C@@H](CCCNC(=N)N)C(=O)N[C@H]1CSSC[C@@H]2NC(=O)[C@H](CCCCN)NC(=O)CNC(=O)[C@H](Cc3ccccc3)NC(=O)[C@H]([C@@H](C)CC)NC(=O)[C@H](CO)NC(=O)CNC(=O)[C@H]([C@@H](C)CC)NC(=O)[C@H](C)NC(=O)[C@H](CC(C)C)NC(=O)[C@H](CC(C)C)NC(=O)[C@@H]3CSSC[C@@H](C(=O)N[C@@H](Cc4ccc(O)cc4)C(=O)N4CCC[C@H]4C(=O)N[C@@H](CCCNC(=N)N)C(=O)O)NC(=O)[C@H](CCCCN)NC(=O)[C@H](CSSC[C@H](NC(=O)[C@H](CCC(=O)O)NC(=O)[C@H](C(C)C)NC(=O)[C@H](CO)NC(=O)[C@H](C)NC(=O)[C@H](CO)NC1=O)C(=O)N[C@@H](CCCCN)C(=O)N[C@@H](CCC(N)=O)C(=O)N[C@@H](CCCCN)C(=O)N3)NC(=O)[C@H](CCCCN)NC(=O)[C@H](CCCCN)NC(=O)[C@H](CC(N)=O)NC(=O)[C@H](CCCC)NC2=O` [Compound 99] (H-P[Nle]E[Nle]RCSASVECKQKCLLAIGSIFGKC[Nle]NKKCKCYPR-OH; disulfide 6-27, 12-32, 16-34), the half-inhibitory concentration (IC50) in test [1] is 0.34 nM; against Rat whole blood it was not above 1 nM; on Rat whole blood (setting [2]) it was 0.5 nM.

With `CCCC[C@@H]1NC(=O)[C@@H]2CSSC[C@H](NC(=O)[C@H](CCCNC(=N)N)NC(=O)[C@H](CCC(=O)O)NC(=O)[C@H](CC(=O)O)NC(=O)[C@@H](NC(=O)[C@@H]3CCCN3)[C@@H](C)CC)C(=O)N[C@@H](CO)C(=O)N[C@@H](C)C(=O)N[C@@H](CO)C(=O)N[C@@H](C(C)C)C(=O)N[C@@H](CCC(=O)O)C(=O)N[C@H]3CSSC[C@H](NC(=O)[C@H](CCCCN)NC(=O)[C@H](CCCCN)NC(=O)[C@H](CC(N)=O)NC1=O)C(=O)N[C@@H](CCCCN)C(=O)N[C@H](C(=O)N[C@@H](Cc1ccc(O)cc1)C(=O)N1CCC[C@H]1C(=O)N[C@@H](CCCNC(=N)N)C(=O)O)CSSC[C@H](NC(=O)[C@H](CCCCN)NC(=O)[C@H](CCC(N)=O)NC(=O)[C@H](CCCCN)NC3=O)C(=O)N[C@@H](CC(C)C)C(=O)N[C@@H](C)C(=O)N[C@@H](C)C(=O)N[C@@H]([C@@H](C)CC)C(=O)NCC(=O)N[C@@H](CO)C(=O)N[C@@H]([C@@H](C)CC)C(=O)N[C@@H](Cc1ccccc1)C(=O)NCC(=O)N[C@@H](CCCCN)C(=O)N2` [Compound 100] (H-PIDERCSASVECKQKCLAAIGSIFGKC[Nle]NKKCKCYPR-OH; disulfide 6-27, 12-32, 16-34), the IC50 is 0.85 nM in test [1], not above 1 nM against Rat whole blood and 0.87 nM against Rat whole blood (setting [2]).

Take `CCCC[C@H](NC(=O)[C@@H]1CCCN1)C(=O)N[C@@H](CC(=O)O)C(=O)N[C@@H](CCCC)C(=O)N[C@@H](CCCNC(=N)N)C(=O)N[C@H]1CSSC[C@@H]2NC(=O)[C@H](CCCCN)NC(=O)CNC(=O)[C@H](Cc3ccccc3)NC(=O)[C@H]([C@@H](C)CC)NC(=O)[C@H](CO)NC(=O)CNC(=O)[C@H]([C@@H](C)CC)NC(=O)[C@H](C)NC(=O)[C@H](C)NC(=O)[C@H](CC(C)C)NC(=O)[C@@H]3CSSC[C@@H](C(=O)N[C@@H](Cc4ccc(O)cc4)C(=O)N4CCC[C@H]4C(=O)N[C@@H](CCCNC(=N)N)C(=O)O)NC(=O)[C@H](CCCCN)NC(=O)[C@H](CSSC[C@H](NC(=O)[C@H](CCC(=O)O)NC(=O)[C@H](C(C)C)NC(=O)[C@H](CO)NC(=O)[C@H](C)NC(=O)[C@H](CO)NC1=O)C(=O)N[C@@H](C)C(=O)N[C@@H](CCC(N)=O)C(=O)N[C@@H](CCCCN)C(=O)N3)NC(=O)[C@H](CCCCN)NC(=O)[C@H](CCCCN)NC(=O)[C@H](CC(N)=O)NC(=O)[C@H](CCSC)NC2=O` [Compound 102] (H-P[Nle]D[Nle]RCSASVECAQKCLAAIGSIFGKCMNKKCKCYPR-OH; disulfide 6-27, 12-32, 16-34): the IC50 was 0.45 nM in test [1], not above 1 nM on Rat whole blood and 0.32 nM on Rat whole blood (setting [2]).

On to `CCCC[C@@H]1NC(=O)[C@@H]2CSSC[C@H](NC(=O)[C@H](CCCNC(=N)N)NC(=O)[C@@H](N)CC(C)C)C(=O)N[C@@H](CO)C(=O)N[C@@H](C)C(=O)N[C@@H](CO)C(=O)N[C@@H](C(C)C)C(=O)N[C@@H](CCC(=O)O)C(=O)N[C@H]3CSSC[C@H](NC(=O)[C@H](CCCCN)NC(=O)[C@H](CCCCN)NC(=O)[C@H](CC(N)=O)NC1=O)C(=O)N[C@@H](CCCCN)C(=O)N[C@H](C(=O)N[C@@H](Cc1ccc(O)cc1)C(=O)N1CCC[C@H]1C(=O)N[C@@H](CCCNC(=N)N)C(=O)O)CSSC[C@H](NC(=O)[C@H](CCCCN)NC(=O)[C@H](CCC(N)=O)NC(=O)[C@H](CCCCN)NC3=O)C(=O)N[C@@H](CC(C)C)C(=O)N[C@@H](CCCCN)C(=O)N[C@@H](C)C(=O)N[C@@H]([C@@H](C)CC)C(=O)NCC(=O)N[C@@H](CO)C(=O)N[C@@H]([C@@H](C)CC)C(=O)N[C@@H](Cc1ccccc1)C(=O)NCC(=O)N[C@@H](CCCCN)C(=O)N2` [Compound 114] (H-LRCSASVECKQKCLKAIGSIFGKC[Nle]NKKCKCYPR-OH; disulfide 3-24, 9-29, 13-31), for which the IC50 in test [1] was determined as 0.39 nM; against Rat whole blood (setting [2]) it was 2.1 nM.

For `CCCC[C@@H]1NC(=O)[C@@H]2CSSC[C@H](NC(=O)[C@H](CCCNC(=N)N)NC(=O)[C@H](CC(C)C)NC(C)=O)C(=O)N[C@@H](CO)C(=O)N[C@@H](C)C(=O)N[C@@H](CO)C(=O)N[C@@H](C(C)C)C(=O)N[C@@H](CCC(=O)O)C(=O)N[C@H]3CSSC[C@H](NC(=O)[C@H](CCCCN)NC(=O)[C@H](CCCCN)NC(=O)[C@H](CC(N)=O)NC1=O)C(=O)N[C@@H](CCCCN)C(=O)N[C@H](C(=O)N[C@@H](Cc1ccc(O)cc1)C(=O)N1CCC[C@H]1C(=O)N[C@@H](CCCNC(=N)N)C(=O)O)CSSC[C@H](NC(=O)[C@H](CCCCN)NC(=O)[C@H](CCC(N)=O)NC(=O)[C@H](CCCCN)NC3=O)C(=O)N[C@@H](CC(C)C)C(=O)N[C@@H](C)C(=O)N[C@@H](C)C(=O)N[C@@H]([C@@H](C)CC)C(=O)NCC(=O)N[C@@H](CO)C(=O)N[C@@H]([C@@H](C)CC)C(=O)N[C@@H](Cc1ccccc1)C(=O)NCC(=O)N[C@@H](CCCCN)C(=O)N2` [Compound 115] (Ac-LRCSASVECKQKCLAAIGSIFGKC[Nle]NKKCKCYPR-OH; disulfide 3-24, 9-29, 13-31), the IC50 in test [1] is 0.31 nM; at Rat whole blood it was not above 1 nM; at Rat whole blood (setting [2]), 0.9 nM.
